Measured values: US8163793B2, “Proline derivatives” (Hoffman-La Roche Inc., priority 2009, dated 2012)
pIC50: −log10 of the molar value.

Assays:
Cat L = Cat L (UniProt P07711); assay: Cathepsin enzyme inhibition assay (fluorogenic peptide substrate Z-Val-Val-Arg-AMC), Cathepsin L; assay type: biochemical, human and mouse; conditions: enzyme 1 nM, substrate 20 μM, pH 6.5; read-out: CatL IC50
In short: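 Cathepsin L at 1 nM was mixed with compound, then started with 20 μM Z-Val-Val-Arg-AMC in pH 6.5 potassium phosphate with EDTA, Triton X-100 and 5 mM DTT. AMC fluorescence (ex 360/em 465 nm) was followed over 20 min. IC50 is given in μM.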

Cathepsin S = Cathepsin S (UniProt P25774); assay: Cathepsin enzyme inhibition assay (fluorogenic peptide substrate Z-Val-Val-Arg-AMC), Cathepsin S; assay type: biochemical, human and mouse; conditions: enzyme 1 nM, substrate 20 μM, pH 6.5; read-out: CatS IC50
In short: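 Human or mouse cathepsin S (1 nM) was run in 100 mM potassium phosphate pH 6.5 with 5 mM EDTA, 0.001% Triton X-100 and 5 mM DTT. The rise in AMC fluorescence from cleavage was measured, and IC50 values were calculated by standard methods and expressed in μM.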

| Structure (SMILES) | pIC50 (Cat L) | pIC50 (Cathepsin S) |
| --- | --- | --- |
| Cc1cc(N2C[C@H](S(=O)(=O)c3ccc(OCC(F)(F)F)cc3Cl)C[C@H]2C(=O)NC2(C#N)CC2)n(C2CCC2)n1 [Example 480, (2S,4R)-4-[2-Chloro-4-(2,2,2-trifluoro-ethoxy)-benzenesulfonyl]-1-(2-cyclobutyl-5-methyl-2H-pyrazol-3-yl)-pyrrolidine-2-carboxylic acid (1-cyano-cyclopropyl)-amide] | 5.27 | 8.98 |
| CC(C)(C)OC(=O)N1CCC(C(=O)N2C[C@H](S(=O)(=O)c3ccccc3Cl)C[C@H]2C(=O)NC2(C#N)CC2)(c2ccc(Cl)cc2)CC1 [Example 433, tert-butyl 4-(4-chlorophenyl)-4-((2S,4R)-4-(2-chlorophenylsulfonyl)-2-(1-cyanocyclopropylcarbamoyl)pyrrolidine-1-carbonyl)piperidine-1-carboxylate] | 6.02 | 8.71 |
| COc1ccc(S(=O)(=O)[C@@H]2C[C@@H](C(=O)NC3(C#N)CC3)N(C(=O)OC(C)(C)C)C2)c(Cl)c1 [Example 387, (2S,4R)-4-(2-Chloro-4-methoxy-benzenesulfonyl)-2-(1-cyano-cyclopropylcarbamoyl)-pyrrolidine-1-carboxylic acid tert-butyl ester] | 4.28 | 8.17 |
| N#CC1(NC(=O)[C@@H]2C[C@@H](S(=O)(=O)c3ccc(OCC(F)(F)F)cc3Cl)CN2C(=O)C[C@H]2CC[C@H](N)CC2)CC1 [Example 265, (2S,4R)-1-[2-(4-Amino-cyclohexyl)-acetyl]-4-[2-chloro-4-(2,2,2-trifluoro-ethoxy)-benzenesulfonyl]-pyrrolidine-2-carboxylic acid (1-cyano-cyclopropyl)-amide] | 5.69 | 8.87 |
| C[C@H](Oc1ccc(S(=O)(=O)[C@@H]2C[C@@H](C(=O)NC3(C#N)CC3)N(C(=O)C3(C(F)(F)F)CC3)C2)c(Cl)c1)C(F)(F)F [Example 183, (2S,4R)-4-[2-Chloro-4-((S)-2,2,2-trifluoro-1-methyl-ethoxy)-benzenesulfonyl]-1-(1-trifluoromethyl-cyclopropanecarbonyl)-pyrrolidine-2-carboxylic acid (1-cyano-cyclopropyl)-amide] | 5.01 | 9.36 |
| C[C@H](Oc1ccc(S(=O)(=O)[C@@H]2C[C@H](C(=O)NC3(C#N)CC3)N(C(=O)C3(C)CC3)C2)c(Cl)c1)C(F)(F)F [Example 200, (2R,4R)-4-[2-Chloro-4-((S)-2,2,2-trifluoro-1-methyl-ethoxy)-benzenesulfonyl]-1-(1-methyl-cyclopropanecarbonyl)-pyrrolidine-2-carboxylic acid (1-cyano-cyclopropyl)-amide] | ≤ 4.60 | 7.33 |
| Cc1cc(N2C[C@H](S(=O)(=O)c3ccccc3Cl)C[C@H]2C(=O)NC2(C#N)CC2)n(C2CCC2)n1 [Example 353, (2S,4R)-4-(2-Chloro-benzenesulfonyl)-1-(2-cyclobutyl-5-methyl-2H-pyrazol-3-yl)-pyrrolidine-2-carboxylic acid (1-cyano-cyclopropyl)-amide] | 4.87 | 9.00 |
| N#CC1(NC(=O)[C@@H]2C[C@@H](S(=O)(=O)c3ccccc3Cl)CN2C(=O)C(F)(F)c2ccc(Cl)c(Cl)c2)CC1 [Example 437, (2S,4R)-4-(2-Chloro-benzenesulfonyl)-1-[2-(3,4-dichloro-phenyl)-2,2-difluoro-acetyl]-pyrrolidine-2-carboxylic acid (1-cyano-cyclopropyl)-amide] | 6.47 | 8.84 |
| CC(C)C(C(=O)N1C[C@H](S(=O)(=O)c2ccccc2Cl)C[C@H]1C(=O)NC1(C#N)CC1)c1ccc(Cl)cc1 (stereo partly drawn) [Example 432, (2S,4R)-1-(2-(4-chlorophenyl)-3-methylbutanoyl)-4-(2-chlorophenylsulfonyl)-N-(1-cyanocyclopropyl)pyrrolidine-2-carboxamide] | 6.94 | 9.23 |
| N#CC1(NC(=O)[C@@H]2C[C@@H](S(=O)(=O)c3ccc(F)cc3Cl)CN2C(=O)C2(C(F)(F)F)CC2)CC1 [Example 145, (2S,4R)-4-(2-Chloro-4-fluoro-benzenesulfonyl)-1-(1-trifluoromethyl-cyclopropanecarbonyl)-pyrrolidine-2-carboxylic acid (1-cyano-cyclopropyl)-amide] | 4.93 | 9.22 |

The remaining lines, values ahead:

| pIC50 (Cat L) | pIC50 (Cathepsin S) | Structure (SMILES) |
| --- | --- | --- |
| ≤ 4.60 | 8.12 | COC(=O)N1C[C@H](S(=O)(=O)c2ccccc2Cl)C[C@H]1C(=O)NC1(C#N)CC1 [Example 95, (2S,4R)-4-(2-Chloro-benzenesulfonyl)-2-(1-cyano-cyclopropylcarbamoyl)-pyrrolidine-1-carboxylic acid methyl ester] |
| ≤ 4.60 | 6.62 | CC(C)CS(=O)(=O)[C@@H]1C[C@@H](C(=O)NC2(C#N)CC2)N(C(=O)C2(c3ccc(Cl)cc3)CC2)C1 [Example 236, (2S,4R)-1-[1-(4-Chloro-phenyl)-cyclopropanecarbonyl]-4-(2-methyl-propane-1-sulfonyl)-pyrrolidine-2-carboxylic acid (1-cyano-cyclopropyl)-amide] |
| 4.55 | 8.37 | CCN1CCN(c2ccc(S(=O)(=O)[C@@H]3C[C@@H](C(=O)NC4(C#N)CC4)N(C=O)C3)c(Cl)c2)CC1 [Example 143, (2S,4R)-4-[2-Chloro-4-(4-ethyl-piperazin-1-yl)-benzenesulfonyl]-1-formyl-pyrrolidine-2-carboxylic acid (1-cyano-cyclopropyl)-amide] |
| 7.35 | 10.10 | COCCN1CCN(c2ccc(S(=O)(=O)[C@@H]3C[C@@H](C(=O)NC4(C#N)CC4)N(C(=O)C4(c5ccc(Cl)nc5)CC4)C3)c(Cl)c2)CC1 [Example 372, (2S,4R)-4-{2-Chloro-4-[4-(2-methoxy-ethyl)-piperazin-1-yl]-benzenesulfonyl}-1-[1-(6-chloro-pyridin-3-yl)-cyclopropanecarbonyl]-pyrrolidine-2-carboxylic acid (1-cyano-cyclopropyl)-amide; Compound with Formic Acid] |
| 4.24 | 9.72 | CC1(C(=O)N2C[C@H](S(=O)(=O)c3ccc(-c4ccnc(Cl)c4)cc3C(F)(F)F)C[C@H]2C(=O)NC2(C#N)CC2)CC1 [Example 258, (2S,4R)-4-[4-(2-Chloro-pyridin-4-yl)-2-trifluoromethyl-benzenesulfonyl]-1-(1-methyl-cyclopropanecarbonyl)-pyrrolidine-2-carboxylic acid (1-cyano-cyclopropyl)-amide] |
| 6.89 | 9.80 | N#CC1(NC(=O)[C@@H]2C[C@@H](S(=O)(=O)c3ccc(N4CCC4)cc3Cl)CN2C(=O)C2(c3ccc(Cl)cc3)CC2)CC1 [Example 328, (2S,4R)-4-(4-Azetidin-1-yl-2-chloro-benzenesulfonyl)-1-[1-(4-chloro-phenyl)-cyclopropanecarbonyl]-pyrrolidine-2-carboxylic acid (1-cyano-cyclopropyl)-amide] |
| 4.93 | 9.67 | Cc1cc(N2C[C@H](S(=O)(=O)c3ccc(N4CC(F)(F)C4)cc3C(F)(F)F)C[C@H]2C(=O)NC2(C#N)CC2)n(C2CCC2)n1 [Example 415, (2S,4R)-1-(2-Cyclobutyl-5-methyl-2H-pyrazol-3-yl)-4-[4-(3,3-difluoro-azetidin-1-yl)-2-trifluoromethyl-benzenesulfonyl]-pyrrolidine-2-carboxylic acid (1-cyano-cyclopropyl)-amide] |
| ≤ 4.60 | 5.90 | CC(C)C[C@]1(C(=O)NC2(C#N)CC2)C[C@H](S(=O)(=O)c2ccccc2)[C@@H](c2ccc(F)cc2)N1 [Example 126, (2R,4S,5R)-4-Benzenesulfonyl-5-(4-fluoro-phenyl)-2-isobutyl-pyrrolidine-2-carboxylic acid (1-cyano-cyclopropyl)-amide] |
| 6.55 | 9.70 | N#CC1(NC(=O)[C@@H]2C[C@@H](S(=O)(=O)c3ccccc3Cl)CN2C(=O)C2(c3ccccc3)CC2)CC1 [Example 216, (2S,4R)-4-(2-Chloro-benzenesulfonyl)-1-(1-phenyl-cyclopropanecarbonyl)-pyrrolidine-2-carboxylic acid (1-cyano-cyclopropyl)-amide] |
| 5.23 | 8.50 | N#CC1(NC(=O)[C@@H]2C[C@@H](S(=O)(=O)c3ccc(OCC(F)(F)F)cc3Cl)CN2C(=O)Cc2ccc(Cl)cc2)CC1 [Example 244, (2S,4R)-1-[2-(4-Chloro-phenyl)-acetyl]-4-[2-chloro-4-(2,2,2-trifluoro-ethoxy)-benzenesulfonyl]-pyrrolidine-2-carboxylic acid (1-cyano-cyclopropyl)-amide] |
| 4.69 | 8.10 | CC(Oc1ccc(S(=O)(=O)[C@H]2CN[C@H](C(=O)NC3(C#N)CC3)C2)c(Cl)c1)C(F)(F)F (stereo partly drawn) [Example 129, (2S,4R)-4-[2-Chloro-4-(2,2,2-trifluoro-1-methyl-ethoxy)-benzenesulfonyl]-pyrrolidine-2-carboxylic acid (1-cyano-cyclopropyl)-amide] |
| ≤ 4.60 | 8.17 | CC(=O)N1C[C@H](S(=O)(=O)c2ccccc2C(F)(F)F)C[C@H]1C(=O)NC1(C#N)CC1 [Example 101, (2S,4R)-1-Acetyl-4-(2-trifluoromethyl-benzenesulfonyl)-pyrrolidine-2-carboxylic acid (1-cyano-cyclopropyl)-amide] |
| 4.60 | 8.80 | CN1CCC(C(=O)N2C[C@H](S(=O)(=O)c3ccccc3C(F)(F)F)C[C@H]2C(=O)NCC#N)CC1 [Example 70, (2S,4R)-1-(1-Methyl-piperidine-4-carbonyl)-4-(2-trifluoromethyl-benzenesulfonyl)-pyrrolidine-2-carboxylic acid cyanomethyl-amide formiate] |
